Source: patent US6818203B2, “Use of perfluoroalkyl-containing metal complexes as contrast media in MR-imaging for visualization of plaque, tumors and necroses” (Schering Aktiengesellschaft, priority 2000, dated 2004)
“And” between values parts separate entries of the source, which are not always exact repeats. Equal values may be shown once.

Key:
[1] = hydrodynamic micelle diameter (2 Rh) by photon correlation spectroscopy (PCS); format: physicochemical
Excerpt: The amphiphilic compounds according to the invention are combined in solution and are present as aggregates. The size (2 Rh) of such aggregates (e.g., micelles, rods, wafers, etc.) can be determined with the aid of […] (PCS).
As a second criterion, the hydrodynamic micelle diameter 2 Rh, which must be >1 nm, is therefore used. Those perfluoroalkyl-containing metal complexes according to the invention whose 2 RH is ≧3, quite especially preferably >4 nm, are especially suitable.
(§1) Both the determination of the CMC and the photon correlation spectroscopy are described in H.-D. Dörfler, “Grenzflächen- und Kolloidchemie [Interface and Colloid Chemistry],” Weinheim, New York, Basel, Cambridge, Tokyo, VSH 1994.

[2] = critical micelle formation concentration (CMC) by tensiometry; format: physicochemical
Description: In aqueous systems, these amphiphilic molecules show the properties that are characteristic of standard surfactants (such as, e.g., sodium dodecylsulfate, SDS). They thus reduce the surface tension of water. By tensiometry, the so-called CMC (critical micelle formation concentration in mol/l) can be determined. In this respect, the surface tension is determined based on the concentration of the substance to be measured. The CMC can be calculated from the plot of the surface tension function (c) that is obtained. The critical micelle formation concentration of the compounds according to the invention must be <10^−3 mol/l, preferably <10^−4 mol/l.
as §1

iliac lymph nodes = assay: lymph node visualization (MRT) after intravenous administration in VX2-tumor-bearing rabbits; format: in vivo; conditions: 100 μmol of Gd/kg i.v.; 60 minutes and 20 hours
Description: The pictures of FIG. 6 show MR images of an iliac lymph node and of a primary tumor (VX2-tumor implanted i.m.) precontrast, 60 minutes and 20 hours after intravenous administration of 100 μmol of Gd/kg of body weight of metal complex I in rabbits. […] The enhancement in the healthy lymph node tissue was 382% at the time of 15 minutes p.i. and 419% at the time of 60 minutes p.i. […] The ratio of signal intensities of healthy lymph node tissue to metastasis was 3.0 at the time of 15 minutes p.i. and 3.4 at the time of 60 minutes p.i. […] The enhancement in the healthy lymph node tissue was 246% at the time of 15 minutes p.i. and 282% at the time of 60 minutes p.i. […] The ratio of signal intensities of healthy lymph node tissue to metastasis was 2.5 at the time of 15 minutes p.i. and 1.7 at the time of 60 minutes p.i. […] The enhancement in the healthy lymph node tissue was 297% at the time of 10 minutes p.i. and 269% at the time of 60 minutes p.i. […] The ratio of signal intensities of healthy lymph node tissue to metastasis was 5.1 at the time of 10 minutes p.i. and 1.9 at the time of 60 minutes p.i. […] The enhancement in the healthy lymph node tissue was 195% at the time of 15 minutes p.i. and 233% at the time of 60 minutes p.i. […] The ratio of signal intensities of healthy lymph node tissue to metastasis was 1.9 at the time of 15 minutes p.i. and 1.8 at the time of 60 minutes p.i.

[3] = proton relaxivity in plasma (R^1), Minispec P 20; format: physicochemical; conditions: 40° C., 0.47 tesla, bovine plasma
Description: As a third criterion, the proton-relaxivity in plasma (R^1) at 40° C. and a field strength of 0.47 tesla is used. The relaxivity, which is indicated in [l/mmol·s], is the quantitative measurement for the shortening of relaxation time T^1 of the protons. For the purpose according to the invention, the relaxivity must be as high as possible and >10 l/mmol·s, preferably >13 l/mmol·s, especially preferably >15 l/mmol·s.
Relaxivity R^1 [l/mmol·s] of the MR-contrast media according to the invention was determined with the Minispec P 20 device of the Bruker Company. The measurements were taken at 40° C. and a field strength of 0.47 tesla. Eight measuring points were recorded by each T1-sequence: 180°-TI-90°, inversion recovery. As a medium, bovine plasma of the Kraeber Company was used. The contrast medium concentrations [mmol/l] in the batches were between 0.30 and 1.16.

myocardial infarction = assay: infarction visualization (MRT) after intravenous administration in rats with acutely induced myocardial infarction; format: in vivo; conditions: 24 hours after i.v. 100 μmol of Gd/kg
Excerpt: The successful induction of an acute myocardial infarction was confirmed by means of NBT-staining.

[4] = system: primary tumor (VX2-tumor implanted i.m.); assay: tumor visualization (MRT) after intravenous administration in VX2-tumor-bearing rabbits; format: in vivo; conditions: 100 μmol of Gd/kg i.v.
Description: The pictures of FIG. 6 show MR images of an iliac lymph node and of a primary tumor (VX2-tumor implanted i.m.) precontrast, 60 minutes and 20 hours after intravenous administration of 100 μmol of Gd/kg of body weight of metal complex I in rabbits. […]

infarcted tissue = conditions: cited from earlier work

Row | 2 Rh (hydrodynamic micelle diameter) [1] [nm] | CMC (critical micelle formation concentration) [2] [mol/L] | R^1 Plasma (relaxivity) [3] [mmol⁻¹ s⁻¹] | Compound | other results
1 | 4.6 | 1.86e-06 | 35.7 | CC(C(=O)NCC(=O)N1CCN(S(=O)(=O)C(F)(F)C(F)(F)C(F)(F)C(F)(F)C(F)(F)C(F)(F)C(F)(F)C(F)(F)F)CC1)N1CCN(CC(=O)[O-])CCN(CC(=O)[O-])CCN(CC(=O)[O-])CC1.[Gd+3] (centres unmarked) [metal complex I, Gadolinium complex of 10-[1-methyl-2-oxo-3-aza-5-oxo-{4-perfluorooctyl-sulfonyl-piperazin-1-yl}-pentyl]-1,4,7-tris(carboxymethyl)-1,4,7,10-tetraazacyclododecane] | signal in healthy lymph node tissue (T1-weighted gradient-echo images) (iliac lymph nodes): strong signal rise; signal in the infarction area (T1-weighted spin-echo images) (myocardial infarction): strong signal rise; enhancement of the primary tumor (especially the periphery) ([4]; 60 minutes p.i.): considerable enhancement; course of the signal rise of the primary tumor ([4]; 20 hours p.i.): propagated in the more central region of the tumor; enhancement of a pathological structure (optionally secondary tumor or necrosis) on the contralateral side ([4]; late images): late enhancement
2 | 14 | 2.3e-05 | 33 | O=C([O-])CN1CCN(CC(=O)[O-])CCN(CC(O)CNC(=O)COCCC(F)(F)C(F)(F)C(F)(F)C(F)(F)C(F)(F)C(F)(F)C(F)(F)C(F)(F)F)CCN(CC(=O)[O-])CC1.[Gd+3] (centres unmarked) [metal complex II, Gadolinium complex of 10-[2-hydroxy-4-aza-5-oxo-7-oxa-10,10,11,11,12,12,13,13,14,14,15,15,16,16,17,17-heptadecafluoroheptadecyl]-1,4,7-tris (carboxymethyl)-1,4,7,10-tetraazacyclododecane] | –
3 | 31.5 | 1e-06 | 29.7 | CCN(CC(=O)NCC(O)CN1CCN(CC(=O)[O-])CCN(CC(=O)[O-])CCN(CC(=O)[O-])CC1)S(=O)(=O)C(F)(F)C(F)(F)C(F)(F)C(F)(F)C(F)(F)C(F)(F)C(F)(F)C(F)(F)F.[Gd+3] (centres unmarked) [metal complex IV, Gadolinium complex of 10-[2-hydroxy-4-aza-5-oxo-7-aza-7-(perfluorooctyl-sulfonyl)-nonyl]-1,4,7-tris (carboxymethyl)-1,4,7,10-tetraazacyclododecane] | –
4 | 6.0 | 2.65e-06 | 13.3 | CC(C(=O)NCC(=O)NCCOCCOCCOCCCNC(=O)COCCC(F)(F)C(F)(F)C(F)(F)C(F)(F)C(F)(F)C(F)(F)C(F)(F)C(F)(F)F)N1CCN(CC(=O)[O-])CCN(CC(=O)[O-])CCN(CC(=O)[O-])CC1.[Gd+3] (centres unmarked) [metal complex IX] | –
5 | 3.2 | 1.44e-05 | 27.5 | O=C([O-])CN1CCN(CC(=O)[O-])CCN(CC(O)COCCC(F)(F)C(F)(F)C(F)(F)C(F)(F)C(F)(F)C(F)(F)C(F)(F)C(F)(F)F)CCN(CC(=O)[O-])CC1.[Gd+3] (centres unmarked) [metal complex VI, Gadolinium complex of 10-[2-hydroxy-4-oxa-1H,1H,2H,2H,3H,3H,5H,5H,6H,6H-perfluorotetradecyl]-1,4,7-tris(carboxymethyl)-1,4,7,10-tetraazacyclododecane] | –
6 | 25 | 2.92e-05 | 21.2 | CC(C(=O)NCC(=O)N(CCOCCO)CCOCCC(F)(F)C(F)(F)C(F)(F)C(F)(F)C(F)(F)C(F)(F)C(F)(F)C(F)(F)F)N1CCN(CC(=O)[O-])CCN(CC(=O)[O-])CCN(CC(=O)[O-])CC1.[Gd+3] (centres unmarked) [metal complex VIII] | –
7 | 3.0 | 5.2e-05 | 30.3 | COCCOCCOCCOCCOCCN(CCOCCC(F)(F)C(F)(F)C(F)(F)C(F)(F)C(F)(F)C(F)(F)C(F)(F)C(F)(F)F)C(=O)CNC(=O)C(C)N1CCN(CC(=O)[O-])CCN(CC(=O)[O-])CCN(CC(=O)[O-])CC1.[Gd+3] (centres unmarked) [metal complex VII] | –
8 | 35.5 | 2.88e-06 | 24.8 | O=C([O-])CN1CCN(CC(=O)[O-])CCN(CC(O)CNC(=O)COCCC(F)(F)C(F)(F)C(F)(F)C(F)(F)C(F)(F)C(F)(F)C(F)(F)C(F)(F)C(F)(F)C(F)(F)F)CCN(CC(=O)[O-])CC1.[Gd+3] (centres unmarked) [metal complex XI, Gadolinium complex of 10-[2-hydroxy-4-aza-5-oxo-7-oxa-10,10,11,11,12,12,13,13,14,14,15,15,16,16,17,17,18,18,19,19-henicosafluoro-nonadecyl]-1,4,7-tris(carboxymethyl)-1,4,7,10-tetraazacyclododecane] | –
9 | 7.4 | 1.07e-05 | 30.5 | CCN(CCCCCC(=O)NCC(O)CN1CCN(CC(=O)[O-])CCN(CC(=O)[O-])CCN(CC(=O)[O-])CC1)S(=O)(=O)C(F)(F)C(F)(F)C(F)(F)C(F)(F)C(F)(F)C(F)(F)C(F)(F)C(F)(F)F.[Gd+3] (centres unmarked) [metal complex XII, Gadolinium complex of 10-[2-hydroxy-4-aza-5-oxo-11-aza-11-(perfluorooctyl-sulfonyl)-tridecyl]-1,4,7-tris(carboxymethyl) 1,4,7,10-tetraazacyclododecane] | –
10 | 4.3 | 3.25e-06 | 34.0 | O=C([O-])CN1CCN(CC(=O)[O-])CCN(CC(O)CNC(=O)CN(Cc2ccccc2)S(=O)(=O)C(F)(F)C(F)(F)C(F)(F)C(F)(F)C(F)(F)C(F)(F)C(F)(F)C(F)(F)F)CCN(CC(=O)[O-])CC1.[Gd+3] (centres unmarked) [metal complex XIII, Gadolinium complex of 10-[2-hydroxy-4-aza-5-oxo-7-aza-7-(perfluorooctyl-sulfonyl)-8-phenyl-octyl]-1-4-7-tris(carboxymethyl)-1,4,7,10-tetraazacyclododecane] | –
11 | 4.9 | 3.9e-05 | 21.3 | CC(C(=O)NCC(=O)NCCCC[C@H](NC(=O)CNC(=O)C(C)N1CCN(CC(=O)[O-])CCN(CC(=O)[O-])CCN(CC(=O)[O-])CC1)C(=O)N1CCN(S(=O)(=O)C(F)(F)C(F)(F)C(F)(F)C(F)(F)C(F)(F)C(F)(F)C(F)(F)C(F)(F)F)CC1)N1CCN(CC(=O)[O-])CCN(CC(=O)[O-])CCN(CC(=O)[O-])CC1.[Gd+3].[Gd+3] (some centres unmarked) [metal complex XVI] | –
12 | – | – | – | gadolinium-mesoporphyrin [Gd-MP] | ratio of the signal intensities during MRI for infarcted tissue in comparison to healthy tissue (infarcted tissue; infarcted kidney and myocardium (both cases)): 2.10 and 2.19; metal content of the infarcted organ compared with non-infarcted (infarcted tissue; kidney (Example 3 of WO 95/31219)): as high as that of the non-infarcted organ; metal content in the infarcted tissue compared with non-infarcted (infarcted tissue; myocardium (Example 1 of WO 95/31219)): nine times as high
